Experiments:
Experiment in all cases: relative viability (nuclei count vs DMSO), 5 days (fraction); higher = more cells survive
[1] = compound: CC(C)C[C@@H](C(=O)N[C@H](C(=O)OC1CCCC1)c1ccccc1)[C@H](O)C(=O)NO [Tosedostat] + COc1cccc2cc(-c3nc([C@H]4CC[C@H](C(=O)O)CC4)n4ncnc(N)c34)[nH]c12 [OSI-027] (partner 0.5 µM)
In short: (§1)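 Medians of duplicate plates are given as relative viability. That measure is the nuclei count in treated wells divided by the count in vehicle wells. Counts were taken on 4× images of lung cancer cell lines in 1536-well plates, 5 days after pin-tool dosing the day after seeding with one drug alone or a fixed anchor-drug dose plus five library-drug doses (not always all listed) in √10 steps.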

[2] = compound: CC(C)C[C@@H](C(=O)N[C@H](C(=O)OC1CCCC1)c1ccccc1)[C@H](O)C(=O)NO [Tosedostat] + C[C@@H](Oc1cc(-c2cnn(C3CCNCC3)c2)cnc1N)c1c(Cl)ccc(F)c1Cl [Crizotinib] (partner 1 µM)
In short: as §1

[3] = compound: CC(C)C[C@@H](C(=O)N[C@H](C(=O)OC1CCCC1)c1ccccc1)[C@H](O)C(=O)NO [Tosedostat] + Nc1ncn([C@H]2C[C@H](O)[C@@H](CO)O2)c(=O)n1 [Decitabine] (partner 2 µM)
In short: as §1

[4] = compound: CC1=NN=C(O1)C2=NN=C(C=C2)N3CCC(CC3)OC4=C(C=CC(=C4)F)Cl + COc1cccc2cc(-c3nc([C@H]4CC[C@H](C(=O)O)CC4)n4ncnc(N)c34)[nH]c12 [OSI-027] (partner 0.5 µM)
In short: as §1

Row | Cell Line | relative viability ([1]; first compound 0.02 µM) | relative viability ([1]; first compound 0.06325 µM) | relative viability ([1]; first compound 0.2 µM) | relative viability ([1]; first compound 0.6325 µM) | relative viability ([1]; first compound 2 µM) | relative viability ([2]; first compound 0.02 µM) | relative viability ([2]; first compound 0.06325 µM) | relative viability ([2]; first compound 0.2 µM) | relative viability ([2]; first compound 0.6325 µM) | relative viability ([2]; first compound 2 µM) | relative viability ([3]; first compound 0.06325 µM) | relative viability ([3]; first compound 0.2 µM) | relative viability ([3]; first compound 0.6325 µM) | relative viability ([3]; first compound 2 µM) | relative viability ([4]; first compound 0.253 µM) | relative viability ([4]; first compound 2.53 µM) | relative viability ([4]; first compound 8 µM) | relative viability ([4]; first compound 0.8 µM) | relative viability ([3]; first compound 0.02 µM)
1 | NCI-H2085 | 0.555 | 0.797 | 0.704 | 0.699 | 0.673 | 0.842 | 0.98 | 0.91 | 0.896 | 0.814 | 0.548 | 0.495 | 0.503 | 0.43 | 0.594 | 0.732 | 0.49 | – | –
2 | CAL-12T | 0.9 | 0.769 | 0.76 | 0.572 | 0.457 | 0.702 | 0.594 | 0.727 | 0.533 | 0.661 | – | – | – | – | 0.54 | 0.668 | 0.513 | 0.705 | –
3 | NCI-H1623 | 0.433 | 0.429 | 0.456 | 0.462 | 0.453 | – | – | – | – | – | – | – | – | – | 0.36 | 0.392 | 0.429 | 0.457 | –
4 | HCC-44 | 0.538 | 0.592 | 0.384 | 0.513 | 0.374 | 0.861 | 0.755 | 0.759 | 0.741 | 0.492 | 0.919 | 0.943 | 0.865 | 0.747 | 0.391 | 0.344 | 0.389 | 0.53 | 0.941
5 | EKVX | 0.718 | 0.764 | 0.673 | 0.696 | 0.748 | 0.763 | 0.842 | 0.921 | 0.807 | 0.789 | 0.34 | 0.292 | 0.313 | 0.332 | 0.481 | 0.362 | 0.423 | 0.465 | 0.37
6 | NCI-H1734 | 0.593 | 0.669 | 0.64 | 0.571 | 0.564 | 0.727 | 0.695 | 0.688 | 0.574 | 0.656 | 0.509 | 0.461 | 0.418 | 0.446 | 0.647 | 0.599 | 0.524 | 0.446 | 0.487
7 | NCI-H1944 | 0.424 | 0.401 | 0.422 | 0.381 | 0.38 | 1.11 | 1.01 | 1.04 | 1.08 | 0.942 | 0.431 | 0.458 | 0.416 | 0.39 | 0.36 | 0.441 | 0.425 | 0.379 | 0.456
8 | NCI-H1792 | 0.71 | 0.68 | 0.752 | 0.729 | 1.08 | 1 | 0.991 | 1.04 | 0.963 | 1.03 | 0.506 | 0.52 | 0.465 | 0.525 | 0.547 | 0.686 | 0.731 | 0.587 | 0.62
9 | Calu-6 | – | – | – | – | – | 0.924 | 0.755 | 0.762 | 0.682 | 0.415 | – | – | – | – | – | – | – | – | –
10 | EBC-1 | – | – | – | – | – | 0.197 | 0.185 | 0.197 | 0.179 | 0.153 | – | – | – | – | – | – | – | – | –
11 | NCI-H596 | 0.826 | 0.924 | 0.909 | 0.564 | 0.629 | 0.968 | 1.07 | 1.13 | 1.15 | 0.825 | 1.13 | 1.03 | 0.879 | 0.838 | 0.565 | 0.734 | 0.698 | 0.572 | 1.3
12 | A-427 | 0.437 | 0.548 | 0.534 | 0.484 | 0.406 | 0.972 | 0.847 | 0.87 | 0.916 | 0.895 | 0.594 | 0.629 | 0.506 | 0.55 | 0.498 | 0.428 | 0.404 | – | 0.562
13 | NCI-H441 | 0.609 | 0.593 | 0.632 | 0.433 | 0.437 | 0.648 | 0.761 | 0.496 | 0.335 | 0.401 | 0.253 | 0.239 | 0.198 | 0.244 | 0.579 | 0.603 | 0.52 | 0.347 | 0.226
14 | NCI-H1563 | 0.813 | 0.797 | 0.788 | 0.891 | 0.836 | 0.877 | 0.998 | 0.893 | 1.07 | 0.917 | – | – | – | – | 0.772 | 0.77 | 0.834 | 0.854 | –
15 | NCI-H358 | 0.925 | 0.745 | 0.362 | 0.349 | 0.329 | 0.725 | 0.458 | 0.355 | 0.198 | 0.196 | 0.188 | 0.143 | 0.166 | 0.157 | 0.635 | 0.561 | 0.514 | 0.461 | 0.238
16 | LOU-NH91 | 0.735 | 0.822 | 0.703 | 0.676 | 0.616 | 0.86 | 0.752 | 0.767 | 0.695 | 0.694 | 0.797 | 0.806 | 0.726 | 0.74 | 0.693 | 0.706 | 0.69 | 0.645 | 0.82
17 | NCI-H3122 | 1.15 | 0.985 | 1.01 | 0.963 | 0.588 | 0.292 | 0.274 | 0.277 | 0.254 | 0.234 | 0.524 | 0.447 | 0.411 | 0.418 | 0.359 | 0.418 | 0.348 | 0.384 | 0.497
18 | HOP-62 | 0.836 | 0.813 | 0.885 | 0.671 | 0.664 | 1.01 | 0.994 | 0.677 | 0.81 | 0.69 | 0.203 | 0.258 | 0.159 | 0.186 | 0.762 | 0.771 | 0.555 | 0.579 | 0.227
19 | HARA | 0.695 | 0.492 | 0.421 | 0.447 | 0.382 | 1.12 | 0.912 | 0.991 | 0.997 | 1.14 | 0.583 | 0.427 | 0.442 | 0.457 | 0.404 | 0.359 | 0.348 | 0.206 | 0.583

From the supplement of paper PMC10307832
